# Data taken from ChEMBL document CHEMBL3797055, “Glabridin-chalcone hybrid molecules: drug resistance reversal agent against clinical isolates of methicillin-resistant Staphylococcus aureus” (Medchemcomm, 2016).
# Columns and labels:
# Type in all cases: functional
# Staphylococcus aureus [1] = experiment: Antibacterial activity against clinical isolates of methicillin-resistant Staphylococcus aureus ST10342 by broth microdilution assay
# Staphylococcus aureus [2] = experiment: Antibacterial activity against clinical isolates of methicillin-resistant Staphylococcus aureus P4629 by broth microdilution assay
# Staphylococcus aureus [3] = experiment: Antibacterial activity against clinical isolates of methicillin-resistant Staphylococcus aureus ST10760 by broth microdilution assay
# Staphylococcus aureus [4] = experiment: Antibacterial activity against clinical isolates of methicillin-resistant Staphylococcus aureus ST2071 by broth microdilution assay
# Staphylococcus aureus [5] = experiment: Antibacterial activity against clinical isolates of methicillin-resistant Staphylococcus aureus P4423 by broth microdilution assay
# Staphylococcus aureus [6] = experiment: Antibacterial activity against clinical isolates of methicillin-resistant Staphylococcus aureus P4650 by broth microdilution assay
# Staphylococcus aureus [7] = experiment: Antibacterial activity against Staphylococcus aureus MTCC 96 by broth microdilution assay
SMILES,MIC (Staphylococcus aureus [1]),MIC (Staphylococcus aureus [2]),MIC (Staphylococcus aureus [3]),MIC (Staphylococcus aureus [4]),MIC (Staphylococcus aureus [5]),MIC (Staphylococcus aureus [6]),MIC (Staphylococcus aureus [7])
COc1cc(OC)c([C@@H]2COc3c(cc(/C=C/C(=O)c4ccc[nH]4)c4c3C=CC(C)(C)O4)C2)cc1/C=C/C(=O)c1ccc[nH]1,50 µg/mL,50 µg/mL,50 µg/mL,50 µg/mL,50 µg/mL,50 µg/mL,50 µg/mL
COc1ccc([C@@H]2COc3c(cc(/C=C/C(=O)c4cc(OC)c(OC)c(OC)c4)c4c3C=CC(C)(C)O4)C2)c(OC)c1,25 µg/mL,25 µg/mL,25 µg/mL,25 µg/mL,25 µg/mL,25 µg/mL,25 µg/mL
COc1ccc([C@@H]2COc3c(cc(/C=C/C(=O)c4ccccc4)c4c3C=CC(C)(C)O4)C2)c(OC)c1,25 µg/mL,25 µg/mL,25 µg/mL,25 µg/mL,25 µg/mL,25 µg/mL,25 µg/mL
COc1ccc(C(=O)/C=C/c2cc3c(c4c2OC(C)(C)C=C4)OC[C@@H](c2ccc(OC)cc2OC)C3)c(OC)c1,> 100 µg/mL,> 100 µg/mL,> 100 µg/mL,> 100 µg/mL,> 100 µg/mL,> 100 µg/mL,> 100 µg/mL
COc1ccc([C@@H]2COc3c(cc(C=O)c4c3C=CC(C)(C)O4)C2)c(OC)c1,> 100 µg/mL,> 100 µg/mL,> 100 µg/mL,> 100 µg/mL,> 100 µg/mL,> 100 µg/mL,> 100 µg/mL
COc1cc(OC)c([C@@H]2COc3c(ccc4c3C=CC(C)(C)O4)C2)cc1/C=C/C(=O)c1ccc[nH]1,50 µg/mL,50 µg/mL,50 µg/mL,50 µg/mL,50 µg/mL,50 µg/mL,25 µg/mL
COc1cc(OC)c([C@@H]2COc3c(cc(/C=C/C(=O)c4ccccc4OC)c4c3C=CC(C)(C)O4)C2)cc1/C=C/C(=O)c1ccccc1OC,100 µg/mL,100 µg/mL,100 µg/mL,100 µg/mL,100 µg/mL,100 µg/mL,50 µg/mL
COc1ccc(C(=O)/C=C/c2cc([C@@H]3COc4c(cc(/C=C/C(=O)c5ccc(OC)cc5OC)c5c4C=CC(C)(C)O5)C3)c(OC)cc2OC)c(OC)c1,50 µg/mL,50 µg/mL,50 µg/mL,50 µg/mL,50 µg/mL,50 µg/mL,50 µg/mL
CCn1cc(C(=O)O)c(=O)c2cc(F)c(N3CCNCC3)cc21 [NORFLOXACIN],250 µg/mL,500 µg/mL,500 µg/mL,500 µg/mL,250 µg/mL,125 µg/mL,1.56 µg/mL
COc1cccc(C(=O)/C=C/c2cc([C@@H]3COc4c(cc(/C=C/C(=O)c5cccc(OC)c5)c5c4C=CC(C)(C)O5)C3)c(OC)cc2OC)c1,> 100 µg/mL,> 100 µg/mL,> 100 µg/mL,> 100 µg/mL,> 100 µg/mL,> 100 µg/mL,> 100 µg/mL
COc1cccc(C(=O)/C=C/c2cc3c(c4c2OC(C)(C)C=C4)OC[C@@H](c2ccc(OC)cc2OC)C3)c1,25 µg/mL,25 µg/mL,25 µg/mL,25 µg/mL,25 µg/mL,25 µg/mL,25 µg/mL
COc1cc(OC)c([C@@H]2COc3c(ccc4c3C=CC(C)(C)O4)C2)cc1/C=C/C(=O)c1ccccc1OC,> 100 µg/mL,> 100 µg/mL,> 100 µg/mL,> 100 µg/mL,> 100 µg/mL,> 100 µg/mL,> 100 µg/mL
COc1cc(OC)c([C@@H]2COc3c(ccc4c3C=CC(C)(C)O4)C2)cc1/C=C/C(=O)c1ccco1,25 µg/mL,25 µg/mL,25 µg/mL,25 µg/mL,25 µg/mL,25 µg/mL,25 µg/mL
COc1ccc([C@@H]2COc3c(ccc4c3C=CC(C)(C)O4)C2)c(OC)c1,> 100 µg/mL,> 100 µg/mL,> 100 µg/mL,> 100 µg/mL,> 100 µg/mL,> 100 µg/mL,> 100 µg/mL
COc1cc(OC)c([C@@H]2COc3c(cc(C=O)c4c3C=CC(C)(C)O4)C2)cc1C=O,> 100 µg/mL,> 100 µg/mL,> 100 µg/mL,> 100 µg/mL,> 100 µg/mL,> 100 µg/mL,> 100 µg/mL
COc1cc(OC)c([C@@H]2COc3c(ccc4c3C=CC(C)(C)O4)C2)cc1/C=C/C(=O)c1ccc(OC)c(OC)c1,> 100 µg/mL,> 100 µg/mL,> 100 µg/mL,> 100 µg/mL,> 100 µg/mL,> 100 µg/mL,100 µg/mL
COc1ccc([C@@H]2COc3c(cc(/C=C/C(=O)c4ccc[nH]4)c4c3C=CC(C)(C)O4)C2)c(OC)c1,> 100 µg/mL,> 100 µg/mL,> 100 µg/mL,> 100 µg/mL,> 100 µg/mL,> 100 µg/mL,100 µg/mL
COc1cc(OC)c([C@@H]2COc3c(ccc4c3C=CC(C)(C)O4)C2)cc1/C=C/C(=O)c1ccccc1,25 µg/mL,25 µg/mL,25 µg/mL,25 µg/mL,25 µg/mL,25 µg/mL,25 µg/mL
COc1ccc(C(=O)/C=C/c2cc([C@@H]3COc4c(ccc5c4C=CC(C)(C)O5)C3)c(OC)cc2OC)cc1,> 100 µg/mL,> 100 µg/mL,> 100 µg/mL,> 100 µg/mL,> 100 µg/mL,> 100 µg/mL,50 µg/mL
COc1cccc(C(=O)/C=C/c2cc([C@@H]3COc4c(ccc5c4C=CC(C)(C)O5)C3)c(OC)cc2OC)c1,50 µg/mL,50 µg/mL,50 µg/mL,50 µg/mL,50 µg/mL,50 µg/mL,25 µg/mL
COc1cc(OC)c([C@@H]2COc3c(cc(/C=C/C(=O)c4cc(OC)c(OC)c(OC)c4)c4c3C=CC(C)(C)O4)C2)cc1/C=C/C(=O)c1cc(OC)c(OC)c(OC)c1,100 µg/mL,100 µg/mL,100 µg/mL,100 µg/mL,100 µg/mL,100 µg/mL,50 µg/mL
COc1ccc(C(=O)/C=C/c2cc([C@@H]3COc4c(cc(/C=C/C(=O)c5ccc(OC)cc5)c5c4C=CC(C)(C)O5)C3)c(OC)cc2OC)cc1,> 100 µg/mL,> 100 µg/mL,> 100 µg/mL,> 100 µg/mL,> 100 µg/mL,> 100 µg/mL,100 µg/mL
COc1ccc(C(=O)/C=C/c2cc3c(c4c2OC(C)(C)C=C4)OC[C@@H](c2ccc(OC)cc2OC)C3)cc1,> 100 µg/mL,> 100 µg/mL,> 100 µg/mL,> 100 µg/mL,> 100 µg/mL,> 100 µg/mL,> 100 µg/mL
COc1ccc([C@@H]2COc3c(cc(/C=C/C(=O)c4ccccc4OC)c4c3C=CC(C)(C)O4)C2)c(OC)c1,50 µg/mL,25 µg/mL,50 µg/mL,50 µg/mL,50 µg/mL,25 µg/mL,25 µg/mL
COc1cc(OC)c([C@@H]2COc3c(ccc4c3C=CC(C)(C)O4)C2)cc1/C=C/C(=O)c1cc(OC)c(OC)c(OC)c1,25 µg/mL,25 µg/mL,25 µg/mL,25 µg/mL,25 µg/mL,25 µg/mL,25 µg/mL
COc1cc(OC)c([C@@H]2COc3c(ccc4c3C=CC(C)(C)O4)C2)cc1C=O,> 100 µg/mL,> 100 µg/mL,> 100 µg/mL,> 100 µg/mL,> 100 µg/mL,> 100 µg/mL,> 100 µg/mL
COc1cc(OC)c([C@@H]2COc3c(cc(/C=C/C(=O)c4ccccc4)c4c3C=CC(C)(C)O4)C2)cc1/C=C/C(=O)c1ccccc1,25 µg/mL,25 µg/mL,25 µg/mL,25 µg/mL,25 µg/mL,25 µg/mL,25 µg/mL
COc1ccc(C(=O)/C=C/c2cc([C@@H]3COc4c(ccc5c4C=CC(C)(C)O5)C3)c(OC)cc2OC)c(OC)c1,25 µg/mL,25 µg/mL,25 µg/mL,25 µg/mL,25 µg/mL,12.5 µg/mL,12.5 µg/mL
